The record followed here is patent US11725036B2, “Modified lipidated relaxin B chain peptides and their therapeutic use” (Sanofi, priority 2018, dated 2023).

Data set [1] can be described thus: Stability in human plasma. It counts as in vitro ADME. To be noted: for Human Plasma stability % remaining: T = 0, 37° C., 5 μM; for remaining at 1 h, 5 μM / remaining at 4 h, 5 μM: human, plasma (sodium or lithium heparin), 37° C. The method, then: (§1) Prior to the testing of stability in plasma (or blood) of a peptide batch, its purity (HPLC-UV) was determined.
(§2) Rat and Human plasma: anti-coagulant sodium or lithium heparin.
(§3) 100 μM solution of study compound in 50 mM phosphate buffer pH 7.4.
(§4) 950 μL plasma (or blood) was pre-incubated for 5 min at 37° C. 50 μL of compound stock solution was added. Final compound concentration=5 μM. Vortex and transfer 150 μL plasma (or blood) into an Eppendorf for each time point. The time points […] were carried out in duplicate for each species.
(§5) After incubation, 150 μL plasma (or blood) was extracted with 600 μL Acetonitrile containing 1% TFA. Said mixture was then vortexed and centrifuged 10 min at 14600 rpm. 200 μL supernatant was dried under N2. Sample was then reconstituted in 200 μL of H2O/CH3CN 98/2+0.1% FA+50 ng/ml Labetalol and analyzed using the analytical system used in solubility and stability studies.
(§6) For determination of the amount of the remaining peptide, the peak areas of the target compound at t0 and each time point […] were compared, resulting in “% remaining peptide”, following the equation: % remaining peptide=[(peak area peptide time)×100]/peak area peptide t0. The stability was expressed as “% remaining peptide”.

The nature of data set [2]: Solubility testing in buffer. Format: physicochemical. The conditions noted are these: target solubility 10.0 mg/ml.
The next data set can be described thus: Stability in rat blood. Format: in vitro ADME. The conditions noted are these: for Rat blood stability % remaining: T = 0, 37° C., 5 μM; for remaining at 1 h, 5 μM / remaining at 4 h, 5 μM: rat, whole blood (sodium or lithium heparin), 37° C. The protocol: as §1
(§7) Rat and Human blood: anti-coagulant sodium or lithium heparin.
as §3, §4, §5, §6

A further data set can be described thus: Stability in rat plasma. Format: in vitro ADME. To be noted: for Rat plasma stability % remaining: T = 0, 37° C., 5 μM; for remaining at 1 h, 5 μM / remaining at 4 h, 5 μM: rat, plasma (sodium or lithium heparin), 37° C. The protocol:
as §1, §2, §3, §4, §5, §6

Another data set in a line: in vivo. Also on record: species or system Sprague Dawley rats. To be noted: Sprague Dawley, rat; for bioavailability / Cmax / Tmax: sc; for Cmax / Tmax: 3 mg/kg. The protocol: Prior to the testing of a peptide batch, its purity (HPLC-UV) was determined. Dose was corrected for presence of salts, solvent and purity. Bioanalytical screening method for quantification of peptides in rat: Sprague Dawley rats were dosed with study peptide at a dose of 1 mg/kg intravenously (i.v.) or 3 mg/kg subcutaneously (s.c.) as a solution in PBS (0.2 mg/ml and 0.6 mg/ml respectively). Blood samples were collected after: 0.083, 0.25, 0.5, 1, 2, 4, 8, 24, 48 and 72 h (i.v. route) and 0.25, 0.5, 1, 2, 4, 6, 8, 10, 24, 48 and 72 h (s.c route) post application. Plasma samples were analyzed after protein precipitation via liquid chromatography mass spectrometry (LC/MS). PK parameters and half-life were calculated using Phoenix 64 (WinNonlin 6.4)-Pharsight (Certara™) (non-compartment model). Values below the limit of quantification (BLQ) were replaced by zero for subsequent calculations and PK analysis. T½: in-vivo half-life, time required for test compound plasma concentration to be divided by two during the PK experiment. C0: Extrapolated test compound plasma concentration at t=0 time point (i.v. route). Cmax: maximal test compound plasma concentration at the indicated time point (s.c. route). Tmax: Time point where Cmax was attained. F %: s.c. vs i.v. bioavailability, dose-corrected area under curve (AUC) s.c. route divided by AUC i.v.

The nature of the next data set: Stability in human blood. It counts as in vitro ADME. The conditions noted are these: for Human blood stability % remaining: T = 0, 37° C., 5 μM; for remaining at 1 h, 5 μM / remaining at 4 h, 5 μM: human, whole blood (sodium or lithium heparin), 37° C. The method, then:
as §1, §7, §3, §4, §5, §6

The mark [3] stands for this setting: acetate buffer 50 mM pH 4.5, read-out: Solubility Acetate buffer pH 4.5.
Setting [4] is: phosphate buffer 50 mM pH 7.4, read-out: Solubility phosphate buffer pH 7.4.

Converted amounts (≈) assume the structure as drawn. Where two headings read alike, the source gives them in different places. Marks after values point to notes of the source that are not given here. Starred links: 1 amine or outer side, 2 acyl side, 3 side chain; linkers in the order of their positions; H or OH if unused. Non-standard residues stand in square brackets, D forms with d. Residues, ends and D or L forms follow the SMILES beside them. Groups on a side chain read outwards from the residue. *: point of attachment. X1 = CCCCCCCCCCCCCCCC(=O)N[C@@H](CCC(=O)N[C@@H](CCC(=O)N[C@@H](CCC(=O)NCCCOCCOCCOCCCNC(=O)CCC(=O)NCCCOCCOCCOCCCNC(=O)CCC(=O)NCCCOCCOCCOCCCN*)C(=O)O)C(=O)O)C(=O)O; X2 = CCCCCCCCCCCCCCCC(=O)N[C@@H](CCC(=O)N[C@@H](CCC(=O)N[C@@H](CCC(=O)NCCCOCCOCCOCCCNC(=O)CCC(=O)NCCCOCCOCCOCCCN*)C(=O)O)C(=O)O)C(=O)O; Suc = O=C(CCC(=O)[*:2])[*:1]; αMeK = C[C@](N)(CCCCN)C(=O)O; Aib = CC(C)(N)C(=O)O

Take `CCCCCCCCCCCCCCCC(=O)N[C@@H](CCC(=O)N[C@@H](CCC(=O)N[C@@H](CCC(=O)NCCCOCCOCCOCCCNC(=O)CCC(=O)NCCCOCCOCCOCCCNC(=O)CCC(=O)NCCCC[C@H](NC(=O)CNC(=O)[C@H](CCC(=O)O)NC(=O)C(C)(C)NC(=O)C(C)(C)NC(=O)[C@@H](NC(=O)[C@H](CCCCNC(C)=O)NC(=O)[C@H](C)NC(=O)[C@H](CCCNC(=N)N)NC(=O)[C@@H](NC(=O)[C@H](CCCCN)NC(=O)[C@H](CCC(=O)O)NC(=O)[C@H](CCCNC(=N)N)NC(=O)CNC(=O)[C@H](CCC(=O)O)NC(=O)[C@H](CC(C)C)NC(C)=O)C(C)C)[C@@H](C)CC)C(=O)N[C@@H](CO)C(=O)N[C@H](C(=O)N[C@@H](Cc1c[nH]c2ccccc12)C(=O)N[C@@H](CO)C(=O)NC(C)(C)C(=O)N[C@@H](CCCNC(=N)N)C(=O)N[C@@H](CCCCN)C(=O)N[C@@H](CCCCNC(C)=O)C(N)=O)[C@@H](C)O)C(=O)O)C(=O)O)C(=O)O` [compound 4] (Ac-LEGREKVRAK(Ac)I[Aib][Aib]EGK([Suc-X2])STWS[Aib]RKK(Ac)-NH2): in data set [1], the “Human Plasma stability % remaining” value came to 100%; the fraction remaining at 1 h, 5 μM was determined as 100%; the share remaining at 4 h, 5 μM came to 100%. In data set [2] (setting [3]), the solubility was found to be 9.63 mg/mL (≈ 2350 µM). For the same compound, in data set [2] (setting [4]), the solubility amounted to 7.71 mg/mL (≈ 1880 µM). In the data set “Stability in rat blood”, the “Rat blood stability % remaining” value is listed as 100* %; the share remaining at 1 h, 5 μM was 102%; the share remaining at 4 h, 5 μM was 86%. For the same compound, in “Stability in rat plasma”, the “Rat plasma stability % remaining” value is recorded as 100%; the fraction remaining at 1 h, 5 μM was 100%; the fraction remaining at 4 h, 5 μM amounted to 59%. In “in vivo” (iv, 1 mg/kg), this compound had a C0 of 2750 nM and a half-life of 8.71 h. Further, in the data set “in vivo”, the bioavailability turned out to be 69%, the highest level (Cmax) was 1990 nM and the Tmax was 8 h. Further, in “Stability in human blood”, the “Human blood stability % remaining” value is given as 100* %; the amount remaining at 1 h, 5 μM stood at 100%; the amount remaining at 4 h, 5 μM stood at 99%.

In the case of `CCCCCCCCCCCCCCCC(=O)N[C@@H](CCC(=O)N[C@@H](CCC(=O)N[C@@H](CCC(=O)NCCCOCCOCCOCCCNC(=O)CCC(=O)NCCCOCCOCCOCCCNC(=O)CCC(=O)NCCCOCCOCCOCCCNC(=O)CCC(=O)NCCCC[C@H](NC(=O)CNC(=O)[C@H](CCC(=O)O)NC(=O)C(C)(C)NC(=O)C(C)(C)NC(=O)[C@@H](NC(=O)[C@H](CCCCNC(C)=O)NC(=O)[C@H](C)NC(=O)[C@H](CCCNC(=N)N)NC(=O)[C@@H](NC(=O)[C@H](CCCCN)NC(=O)[C@H](CCC(=O)O)NC(=O)[C@H](CCCNC(=N)N)NC(=O)CNC(=O)[C@H](CCC(=O)O)NC(=O)[C@H](CC(C)C)NC(C)=O)C(C)C)[C@@H](C)CC)C(=O)N[C@@H](CO)C(=O)N[C@H](C(=O)N[C@@H](Cc1ccccc1)C(=O)N[C@@H](CO)C(=O)N[C@@](C)(CCCCN)C(=O)N[C@@H](CCCNC(=N)N)C(=O)N[C@@H](C)C(=O)N[C@@H](CCCCNC(C)=O)C(N)=O)[C@@H](C)O)C(=O)O)C(=O)O)C(=O)O` [compound 3] (Ac-LEGREKVRAK(Ac)I[Aib][Aib]EGK([Suc-X1])STFS[αMeK]RAK(Ac)-NH2), in data set [1], the “Human Plasma stability % remaining” value was 99%; the share remaining at 1 h, 5 μM came to 95%; the fraction remaining at 4 h, 5 μM was determined as 100%. The solubility in data set [2] (setting [3]) came out at 11.1 mg/mL (≈ 2550 µM). Also, the solubility in data set [2] (setting [4]) stood at 11.5 mg/mL (≈ 2640 µM). Further, in the data set “Stability in rat blood”, the “Rat blood stability % remaining” value is given as 100* %; the amount remaining at 1 h, 5 μM amounted to 95%; the fraction remaining at 4 h, 5 μM was determined as 84%. Further, in “Stability in rat plasma”, the “Rat plasma stability % remaining” value came out at 98%; the fraction remaining at 1 h, 5 μM worked out at 100%; the amount remaining at 4 h, 5 μM is 87%. Besides, in “in vivo” (iv, 1 mg/kg), the C0 came out at 3200 nM and the “T½ (h), in-vivo half-life” value is listed as 7.8 h. Also, in the data set “in vivo”, the bioavailability was 83%, the peak level (Cmax) was 2300 nM and the Tmax amounted to 8 h. In the data set “Stability in human blood”, the “Human blood stability % remaining” value is on record as 100* %; the share remaining at 1 h, 5 μM was determined as 95%; the amount remaining at 4 h, 5 μM stood at 95%.

Broadly, the solubility is the concentration that dissolves in the medium under given conditions. By half-life is commonly meant how long it takes for the measured level to halve. A lower half-life goes with rapid decline. Usually bioavailability stands for dose-corrected exposure relative to a reference, in per cent. A higher bioavailability goes with much systemic uptake. By Cmax is commonly meant the peak of the concentration-time curve. In general, Tmax refers to the time at which the peak concentration occurs.
